According to US20240092791A1, “DIHYDROFUROPYRIDINE DERIVATIVES AS RHO-KINASE INHIBITORS” (CHIESI FARMACEUTICI S.P.A., priority 2020, published 2024):

Experiments:
[1] = biological target: Rho kinase 2 (ROCK2) (Homo sapiens, UniProt O75116); assay: In vitro inhibitory activity assay ROCK2 (ADP-Glo); assay type: biochemical; details: ATP 200 μM, Cheng-Prusoff from IC50; read-out: ROCK2 (Ki, range of activity)
Procedure: (§1) The effectiveness of compounds of the present invention to inhibit Rho kinase activity can be determined in a 10 μl assay containing 40 mM Tris pH7.5, 20 mM MgCl2 0.1 mg/mL BSA, 50 μM DTT and 2.5 μM peptide substrate (Myelin Basic Protein) using an ADP-Glo kit (Promega). Compounds were dissolved in DMSO such that the final concentration of DMSO was 1% in the assay. All reactions/incubations are performed at 25° C. Compound (2 ul) and either Rho kinase 1 or 2 (4 μl) were mixed and incubated for 30 mins. Reactions were initiated by addition of ATP (4μ1) such that the final concentration of ATP in the assay was 200 μM. After a 1 hour incubation 10 μl of ADP-Glo Reagent was added and after a further 1 hour incubation 20 ul of Kinase Detection Buffer was added and the mixture incubated for a further 45 minutes. The luminescent signal was measured on a luminometer. […] Compounds were tested in dose-response format and the inhibition of kinase activity was calculated at each concentration of compound. To determine the IC50 (concentration of compound required to inhibit 50% of the enzyme activity) data were fit to a plot of % inhibition vs Log10 compound concentration using a sigmoidal fit with a variable slope and fixing the maximum to 100% and the minimum to 0%. To determine the Ki values the Cheng-Prusoff equation was utilized (Ki=IC50/(1+[S]/Km).

[2] = system: cch-evoked bronchoconstriction; assay: Experimental bronchospasm (carbachol-induced bronchoconstriction, Konzett & Roessler); assay type: in vivo, Male CD Sprague Dawley rats; details: for inhibition in vivo at 0.003 mg/kg / inhibition in vivo at 0.01 mg/kg: iv, rat, 1 hour after administration, carbachol 80 μg/kg i.v., read-out: Inhibition % (±s.e. mean) of cch-evoked bronchoconstriction; for inhibition in vivo at 0.003 mg/kg: dose 3 μg/Kg intratracheal; for inhibition in vivo at 0.01 mg/kg: dose 10 μg/Kg intratracheal
Procedure: Male CD Sprague Dawley rats (220-250 g) were purchased from Charles River Laboratories Italy (Calco, Lecco). Prior to use animals were acclimated for at least 5 days 20 to the local vivarium conditions (room temperature: 20-24° C.; relative humidity: 40-70%), having free access to standard rat chow and softened tap water. All the procedures were performed in animal operating rooms according to ethical guidelines for the conduct of animal research (D. L.vo 116/92).
Rats were anaesthetized with a combination of anesthetics (Zoletil 20 mg/kg+Xylazine 5 mg/kg, ip) for the i.t. administration. A laryngoscope was moved forward into the mouth to visualize the trachea and guide the insertion of the tip of a custom-made small diameter cannula directly into the trachea and located 1-2 mm above the bifurcation.
In order to assess the residual inhibitory activity of test compounds 1 hour after their administration, rats were surgically prepared. Body temperature was kept constant at 37° C. by a heated blanket.
The trachea was cannulated and the lungs were ventilated artificially with a constant volume ventilator (rodent ventilator mod. 7025, Ugo Basile, Comerio, Varese, Italy) at a frequency of 80 strokes/min and at a tidal volume of 10 ml/kg. To avoid spontaneous breathing, the animals were injected intravenously (i.v.) with pancuronium bromide (2 mg/kg).
Bronchoconstriction was induced by the i.v. injection of carbachol (cch) 80 μg/kg. In control experiments, repeated injections of this dose produced reproducible short-lasting (1-2 min duration) bronchospasms. Bronchoconstriction, quantified as a reduction of tidal volume, was evaluated according to the method described by Konzett & Roessler (1). Systemic blood pressure and changes in airway resistance were monitored with a digital pressure transducer.
After stabilisation of artificial breathing and blood pressure, animals were injected (i.v.) with cch every 3 min, until 3 stable and reproducible basal responses were obtained. […] The effect of test compounds was 15 expressed as % inhibition of cch-evoked bronchoconstriction in time-matched, vehicle-treated, animals (controls).
Tested compounds were dissolved in dH2O and 1% Tween-80 or 0,001% HCl and further diluted to target concentrations. Tested compounds were instilled locally into the trachea in a volume of 125 μl.
All data are presented as mean±s.e.mean. The % inhibition of experimental bronchospasm was calculated comparing the drug-treated with the vehicle-treated control animals. Data analysis was performed using GraphPad Prism software.

[3] = biological target: Rho kinase 1 (ROCK1) (Homo sapiens, UniProt Q13464); assay: In vitro inhibitory activity assay ROCK1 (ADP-Glo); assay type: biochemical; details: ATP 200 μM, Cheng-Prusoff from IC50; read-out: ROCK 1 (Ki, range of activity)
Chain of Rho kinase 1 (ROCK1) (Q13464 whole entry): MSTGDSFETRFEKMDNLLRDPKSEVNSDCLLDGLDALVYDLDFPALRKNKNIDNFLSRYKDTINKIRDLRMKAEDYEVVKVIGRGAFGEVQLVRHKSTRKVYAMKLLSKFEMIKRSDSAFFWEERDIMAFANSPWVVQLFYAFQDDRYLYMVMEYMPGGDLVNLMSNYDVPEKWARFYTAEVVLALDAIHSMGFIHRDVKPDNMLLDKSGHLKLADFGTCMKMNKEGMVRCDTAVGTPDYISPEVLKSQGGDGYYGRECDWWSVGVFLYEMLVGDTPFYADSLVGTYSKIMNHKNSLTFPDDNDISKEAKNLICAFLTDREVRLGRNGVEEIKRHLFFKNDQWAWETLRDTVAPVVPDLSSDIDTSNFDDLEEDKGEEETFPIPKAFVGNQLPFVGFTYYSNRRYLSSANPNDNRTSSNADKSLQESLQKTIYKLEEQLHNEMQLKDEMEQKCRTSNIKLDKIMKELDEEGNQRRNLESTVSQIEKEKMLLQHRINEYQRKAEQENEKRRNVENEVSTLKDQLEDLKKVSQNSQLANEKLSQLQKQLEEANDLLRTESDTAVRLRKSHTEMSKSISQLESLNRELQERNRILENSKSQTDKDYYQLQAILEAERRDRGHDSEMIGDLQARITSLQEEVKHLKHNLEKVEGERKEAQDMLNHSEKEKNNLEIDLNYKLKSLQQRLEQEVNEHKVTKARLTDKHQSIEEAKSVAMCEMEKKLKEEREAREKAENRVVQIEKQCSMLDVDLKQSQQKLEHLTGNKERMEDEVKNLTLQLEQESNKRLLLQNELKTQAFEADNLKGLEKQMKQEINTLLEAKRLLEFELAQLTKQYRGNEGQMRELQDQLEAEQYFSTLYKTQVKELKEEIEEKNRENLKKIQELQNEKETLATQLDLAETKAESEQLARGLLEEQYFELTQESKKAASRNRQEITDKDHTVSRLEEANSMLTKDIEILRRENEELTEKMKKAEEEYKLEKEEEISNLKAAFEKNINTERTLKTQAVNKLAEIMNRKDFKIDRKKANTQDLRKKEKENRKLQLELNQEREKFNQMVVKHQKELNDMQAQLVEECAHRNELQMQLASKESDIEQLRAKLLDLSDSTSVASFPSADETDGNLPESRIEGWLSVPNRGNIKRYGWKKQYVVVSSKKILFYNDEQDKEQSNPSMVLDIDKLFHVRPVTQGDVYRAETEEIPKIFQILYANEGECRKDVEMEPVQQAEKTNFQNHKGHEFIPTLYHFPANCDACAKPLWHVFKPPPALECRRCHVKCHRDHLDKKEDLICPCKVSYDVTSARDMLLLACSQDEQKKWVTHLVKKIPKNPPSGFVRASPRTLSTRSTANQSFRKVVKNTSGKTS
Procedure: as §1

[4] = biological target: PKA (Homo sapiens, UniProt P17612); assay: In vitro inhibitory activity assay for PKA (ADP-Glo), reported as selectivity ratio vs ROCK2; assay type: biochemical; details: Ki value for PKA divided by Ki value of ROCK2
Procedure: The effectiveness of compounds of the present invention to inhibit PKA activity can be determined in a 10 μl assay containing 40 mM Tris pH7.5, 20 mM MgCl2 0.1 mg/ml BSA, 50 μM DTT and 260 μM peptide substrate (kemptide) using an ADP-Glo kit (Promega). Compounds were dissolved in DMSO such that the final concentration of DMSO was 1% in the assay. All reactions/incubations are performed at 25° C. Compound and PKA enzyme (6 μl) were mixed and incubated for 30 mins. Reactions were initiated by addition of ATP (4 μl ) such that the final concentration of ATP in the assay was 10 μM. After a 30 minute incubation 10 μl of ADP-Glo Reagent was added and after a further 1 hour incubation 20 μl of Kinase Detection Buffer was added and the mixture incubated for a further 45 minutes. The luminescent signal was measured on a luminometer. […] Compounds were tested in dose-response format and the inhibition of kinase activity was calculated at each concentration of compound. To determine the IC50 (concentration of compound required to inhibit 50% of the enzyme activity) data were fit to a plot of % inhibition vs Logio compound concentration using a sigmoidal fit with a variable slope and fixing the maximum to 100% and the minimum to 0%. To determine the Ki values the Cheng-Prusoff equation was utilized (Ki=IC50/(1+[S]/Km).
In vitro inhibitory activities for PKA were reported as selectivity ratio vs. ROCK-2.

Chain of Rho kinase 2 (ROCK2) (O75116 whole entry): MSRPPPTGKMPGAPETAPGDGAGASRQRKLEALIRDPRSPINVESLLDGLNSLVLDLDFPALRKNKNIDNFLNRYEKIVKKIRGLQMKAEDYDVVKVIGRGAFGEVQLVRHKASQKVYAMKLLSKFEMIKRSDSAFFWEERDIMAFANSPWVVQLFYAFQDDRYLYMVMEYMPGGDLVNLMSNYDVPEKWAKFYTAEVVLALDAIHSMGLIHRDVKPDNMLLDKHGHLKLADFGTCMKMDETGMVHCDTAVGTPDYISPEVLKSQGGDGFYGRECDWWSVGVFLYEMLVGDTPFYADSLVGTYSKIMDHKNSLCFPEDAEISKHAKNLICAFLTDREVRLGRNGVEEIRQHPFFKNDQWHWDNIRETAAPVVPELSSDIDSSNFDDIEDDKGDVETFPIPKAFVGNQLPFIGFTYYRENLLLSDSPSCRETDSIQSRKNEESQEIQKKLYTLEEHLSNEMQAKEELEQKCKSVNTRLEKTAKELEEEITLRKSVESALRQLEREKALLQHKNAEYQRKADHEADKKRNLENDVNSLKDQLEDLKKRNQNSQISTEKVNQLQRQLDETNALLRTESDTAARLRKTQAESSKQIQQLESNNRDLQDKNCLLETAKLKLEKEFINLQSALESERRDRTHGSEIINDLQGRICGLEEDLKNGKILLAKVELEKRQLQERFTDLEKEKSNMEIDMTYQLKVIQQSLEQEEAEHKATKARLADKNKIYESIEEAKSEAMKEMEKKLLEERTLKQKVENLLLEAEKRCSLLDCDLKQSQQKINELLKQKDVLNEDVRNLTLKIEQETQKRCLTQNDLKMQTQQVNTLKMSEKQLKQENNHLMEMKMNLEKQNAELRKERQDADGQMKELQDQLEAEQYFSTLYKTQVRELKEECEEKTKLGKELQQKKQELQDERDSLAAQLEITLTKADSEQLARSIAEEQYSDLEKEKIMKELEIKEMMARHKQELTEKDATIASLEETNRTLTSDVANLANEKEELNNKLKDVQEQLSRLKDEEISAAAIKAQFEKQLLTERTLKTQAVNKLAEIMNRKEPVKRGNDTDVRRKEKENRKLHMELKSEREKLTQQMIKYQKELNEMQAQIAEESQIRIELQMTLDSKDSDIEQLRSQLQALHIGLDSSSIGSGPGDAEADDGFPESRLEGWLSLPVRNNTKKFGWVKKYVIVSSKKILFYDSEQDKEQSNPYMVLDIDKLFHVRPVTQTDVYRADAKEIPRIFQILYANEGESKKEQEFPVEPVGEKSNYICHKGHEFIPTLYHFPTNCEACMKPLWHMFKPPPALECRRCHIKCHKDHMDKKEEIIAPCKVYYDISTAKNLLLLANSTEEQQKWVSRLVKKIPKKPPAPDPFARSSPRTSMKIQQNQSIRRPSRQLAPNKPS

Ki [1] [nM]	Ki [3] [nM]	Ratio (PKA/ROCK2) [4]	SMILES	inhibition in vivo at 0.003 mg/kg [2] [%]	inhibition in vivo at 0.01 mg/kg [2] [%]	activity as bronchodilator (in words) ([2]; rat bronchospasm test, internal comparator vs compounds with bulky moiety W)
≤ 3	≤ 3	*** (ratio≥10)	CN1CCN(C)C(COc2ccc(NC(=O)c3cccc(CNc4ncc(-c5ccnc(N)n5)c5c4CCO5)c3)nc2)C1 (single isomer, unassigned) [Example 83, 3-(((7-(2-aminopyrimidin-4-yl)-2,3-dihydrofuro[3,2-c]pyridin-4-yl)amino)methyl)-N-(5-((1,4-dimethylpiperazin-2-yl)methoxy)pyridin-2-yl)benzamide]	53.3 ± 4.6		
≤ 3	≤ 3	*** (ratio≥10)	COc1ccc(NC(=O)c2cccc(CNc3ncc(-c4ccnc(N)n4)c4c3CCO4)c2)nc1 [Example 51, 3-(((7-(2-Aminopyrimidin-4-yl)-2,3-dihydrofuro[3,2-c]pyridin-4-yl)amino)methyl)-N-(5-methoxypyridin-2-yl)benzamide]		3.1 ± 14.8	markedly lower activity as bronchodilator
≤ 3	≤ 3	*** (ratio≥10)	CNCc1ccc(NC(=O)c2cccc(CNc3ncc(-c4ccnc(N)n4)c4c3CCO4)c2)nc1 [Example 84, 3-(((7-(2-Aminopyrimidin-4-yl)-2,3-dihydrofuro[3,2-c]pyridin-4-yl)amino)methyl)-N-(5-((methylamino)methyl)pyridin-2-yl)benzamide]		89.5 ± 2	
≤ 3	≤ 3	*** (ratio≥10)	CN1C[C@H]2C[C@@H]1CN2c1ccc(NC(=O)c2cccc(CNc3ncc(-c4ccnc(N)n4)c4c3CCO4)c2)nc1 [Example 74]	77.7 ± 4		
≤ 3	≤ 3	*** (ratio≥10)	Nc1nccc(-c2cnc(NCc3cccc(C(=O)Nc4ccc(OC[C@]5(F)CCNC5)cn4)c3)c3c2OCC3)n1 [Example 79, (S)-3-(((7-(2-aminopyrimidin-4-yl)-2,3-dihydrofuro[3,2-c]pyridin-4-yl)amino)methyl)-N-(5-((3-fluoropyrrolidin-3-yl)methoxy)pyridin-2-yl)benzamide]		58 ± 6	
≤ 3	≤ 3	*** (ratio≥10)	C[C@@H]1CNCCN1c1ccc(NC(=O)c2cccc(CNc3ncc(-c4ccnc(N)n4)c4c3CCO4)c2)nc1 [Example 69, (R)-3-(((7-(2-aminopyrimidin-4-yl)-2,3-dihydrofuro[3,2-c]pyridin-4-yl)amino)methyl)-N-(5-(2-methylpiperazin-1-yl)pyridin-2-yl)benzamide]		74.8 ± 7.8	
≤ 3	≤ 3	*** (ratio≥10)	CNCCOc1ccc(NC(=O)c2cccc(CNc3ncc(-c4ccnc(N)n4)c4c3CCO4)c2)nc1 [Example 73, 3-(((7-(2-aminopyrimidin-4-yl)-2,3-dihydrofuro[3,2-c]pyridin-4-yl)amino)methyl)-N-(5-(2-(methylamino)ethoxy)pyridin-2-yl)benzamide]		76.6 ± 6	
≤ 3	≤ 3	*** (ratio≥10)	CN1CCN(C)C(COc2ccc(NC(=O)c3cccc(CNc4ncc(-c5ccnc(N)n5)c5c4CCO5)c3)nc2)C1 (single isomer, unassigned) [Example 82, 3-(((7-(2-aminopyrimidin-4-yl)-2,3-dihydrofuro[3,2-c]pyridin-4-yl)amino)methyl)-N-(5-((1,4-dimethylpiperazin-2-yl)methoxy)pyridin-2-yl)benzamide]		69.7 ± 3.4	
≤ 3	≤ 3	*** (ratio≥10)	CN1CCN(Cc2ccc(NC(=O)c3cccc(CNc4ncc(-c5ccnc(N)n5)c5c4CCO5)c3)nc2)CC1 [Example 78, 3-(((7-(2-aminopyrimidin-4-yl)-2,3-dihydrofuro[3,2-c]pyridin-4-yl)amino)methyl)-N-(5-((4-methylpiperazin-1-yl)methyl)pyridin-2-yl)benzamide]		68.8 ± 8.6	
≤ 3	≤ 3	*** (ratio≥10)	CNC1(COc2ccc(NC(=O)c3cccc(CNc4ncc(-c5ccnc(N)n5)c5c4CCO5)c3)nc2)CCOCC1 [Example 80, 3-(((7-(2-aminopyrimidin-4-yl)-2,3-dihydrofuro[3,2-c]pyridin-4-yl)amino)methyl)-N-(5-((4-(methylamino)tetrahydro-2H-pyran-4-yl)methoxy)pyridin-2-yl)benzamide]		85.7 ± 0.8	
≤ 3	≤ 3	*** (ratio≥10)	CN(C)CCNc1ccc(NC(=O)c2cccc(CNc3ncc(-c4ccnc(N)n4)c4c3CCO4)c2)nc1 [Example 77, 3-(((7-(2-aminopyrimidin-4-yl)-2,3-dihydrofuro[3,2-c]pyridin-4-yl)amino)methyl)-N-(5-((2-(dimethylamino)ethyl)amino)pyridin-2-yl)benzamide]	79		
